# Source: patent publication US20240325394A1, “SALT AND CRYSTAL FORM OF NITROGEN-CONTAINING HETEROCYCLIC DERIVATIVE, PREPARATION METHOD THEREFOR AND APPLICATION THEREOF” (SHANGHAI HANSOH BIOMEDICAL CO., LTD., priority 2020, published 2024)
# Like-named read-outs stand apart in the source and are kept apart here.
# Tests used:
# [1] = Pharmacokinetics in mice (plasma) after oral administration; assay type: in vivo, Balb/c mice
# Experimental: 5 g of Hydroxyethyl cellulose (HEC, CMC-Na, viscosity: 800-1200 Cps) was weighed, dissolved in 1000 mL of purified water, and 10 g of Tween 80 was added. The mixture was mixed well to form a clear solution.
# The compounds of the embodiments were weighed and added into 4-mL glass bottles, respectively, 2.4 mL of the solution was added, and ultrasound was performed for 10 minutes to obtain a colorless clear solution with a concentration of 1 mg/mL.
# Balb/C mice, males; PO, after overnight fasting, respectively, at a dose of 10 mg/kg, administered in a volume of 10 mL/kg.
# Blood samples were collected before administration and 0.083 h, 0.25 h, 0.5 h, 1 h, 2 h, 4 h, 6 h and 8 h after administration, the blood was placed in EDTA-2K tube, centrifuged at 4° C. 6000 rpm for 6 min to separate plasma, and stored at −80° C.; food was consumed 4 hours after drug administration.
# [2] = biological target: T1, CYP450 2C9 (Homo sapiens, UniProt P11712); assay: CYP enzyme single point inhibition test, human liver microsomes, 2C9; assay type: in vitro ADME; settings: single point method
# T1 construct: from tissue; host or cells: human liver microsomes
# T1 sequence (P11712 whole entry): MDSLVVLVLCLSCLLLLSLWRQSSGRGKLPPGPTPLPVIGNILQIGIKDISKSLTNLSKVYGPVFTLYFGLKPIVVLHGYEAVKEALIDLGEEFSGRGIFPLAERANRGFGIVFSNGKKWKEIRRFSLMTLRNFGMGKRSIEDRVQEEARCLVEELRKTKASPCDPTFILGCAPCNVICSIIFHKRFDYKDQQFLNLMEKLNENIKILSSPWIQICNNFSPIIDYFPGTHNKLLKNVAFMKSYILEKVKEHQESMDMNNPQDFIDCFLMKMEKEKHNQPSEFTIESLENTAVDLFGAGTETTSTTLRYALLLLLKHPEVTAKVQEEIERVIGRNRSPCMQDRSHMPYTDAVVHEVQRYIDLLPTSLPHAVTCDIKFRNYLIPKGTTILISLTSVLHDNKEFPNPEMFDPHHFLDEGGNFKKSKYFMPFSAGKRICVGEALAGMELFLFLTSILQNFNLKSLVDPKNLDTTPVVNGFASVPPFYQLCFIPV
# Experimental: (§1) Using human liver microsomal incubation system, the inhibition of CYP450 enzyme subtypes by compounds was rapidly predicted by single point method.
# (§2) 2.5 mM NADPH: 100 mM phosphate buffer was added to 4.165 mg of NADPH (reduced nicotinamide adenine dinucleotide phosphate) to 2 mL. 0.25 mg/mL microsome: 4 mL of 100 mM phosphate buffer was added to 50 μL of 20 mg/mL microsome and mixed well.
# (§3) The embodiment compound to be tested was weighed and diluted to 10 mM with DMSO and then diluted to 100 µM with 100 mM phosphate buffer.
# (§4) • 1. In a 96-well plate, 40 μL of liver microsomes, 10 μL of substrate, 10 μL of compound to be tested were pre-incubated for 3 min. • 2. 40 μL of NADPH was added. • 3. 300 μL of acetonitrile termination solution containing internal standard was added at 20 min. • 4. Centrifugal injection.
# [3] = biological target: T2, CYP450 3A4 (Homo sapiens, UniProt P08684); assay: CYP enzyme single point inhibition test, human liver microsomes, 3A4 (3A4-M, 3A4-T); assay type: in vitro ADME; settings: single point method
# T2 construct: from tissue; host or cells: human liver microsomes
# T2 sequence (P08684 whole entry): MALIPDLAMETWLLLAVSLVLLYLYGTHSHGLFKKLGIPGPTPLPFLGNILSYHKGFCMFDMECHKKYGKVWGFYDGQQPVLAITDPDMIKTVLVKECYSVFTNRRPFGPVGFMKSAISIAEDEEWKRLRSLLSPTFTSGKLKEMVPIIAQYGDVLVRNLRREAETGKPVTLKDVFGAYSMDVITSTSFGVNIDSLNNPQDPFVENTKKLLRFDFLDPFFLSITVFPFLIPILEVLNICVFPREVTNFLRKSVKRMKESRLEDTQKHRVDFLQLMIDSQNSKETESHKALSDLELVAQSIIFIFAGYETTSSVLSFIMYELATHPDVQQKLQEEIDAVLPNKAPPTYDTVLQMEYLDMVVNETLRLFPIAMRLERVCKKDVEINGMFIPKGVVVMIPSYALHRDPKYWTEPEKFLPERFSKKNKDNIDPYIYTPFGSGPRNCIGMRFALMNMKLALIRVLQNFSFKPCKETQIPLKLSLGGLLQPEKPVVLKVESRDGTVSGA
# Experimental: as §1, §2, §3, §4
# [4] = Plasma stability, human plasma; assay type: in vitro ADME
# Outline: (§5)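 Compound from a 10 μM working solution in 100 mM phosphate buffer was incubated at 37°C in anticoagulated plasma from each species, with propantheline as positive control. Aliquots taken at 0, 15, 30, 60, 90 and 120 min were quenched in acetonitrile with internal standard. Remaining compound was quantified by LC-MS/MS (positive ESI, MRM).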
# [5] = Plasma stability, rat plasma; assay type: in vitro ADME; settings: rat plasma, 37° C.
# Outline: as §5
# [6] = biological target: T3, CYP450 2C19 (Homo sapiens, UniProt P33261); assay: CYP enzyme single point inhibition test, human liver microsomes, 2C19; assay type: in vitro ADME; settings: single point method
# T3 construct: from tissue; host or cells: human liver microsomes
# T3 sequence (P33261 whole entry): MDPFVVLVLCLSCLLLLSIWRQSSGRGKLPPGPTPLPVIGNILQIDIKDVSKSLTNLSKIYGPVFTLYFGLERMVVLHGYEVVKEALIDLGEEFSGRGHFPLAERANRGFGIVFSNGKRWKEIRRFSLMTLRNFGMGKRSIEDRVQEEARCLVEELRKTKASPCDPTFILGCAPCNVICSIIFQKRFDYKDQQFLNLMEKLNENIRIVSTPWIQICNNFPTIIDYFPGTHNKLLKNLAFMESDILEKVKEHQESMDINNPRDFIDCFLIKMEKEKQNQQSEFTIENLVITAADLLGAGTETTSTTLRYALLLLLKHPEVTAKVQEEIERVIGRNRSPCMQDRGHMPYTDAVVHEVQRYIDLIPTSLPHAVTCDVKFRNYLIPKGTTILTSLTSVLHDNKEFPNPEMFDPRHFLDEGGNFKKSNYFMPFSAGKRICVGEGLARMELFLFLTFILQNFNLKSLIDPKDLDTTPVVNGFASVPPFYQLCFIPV
# Experimental: as §1, §2, §3, §4
# [7] = Plasma stability, mouse plasma; assay type: in vitro ADME
# Outline: as §5
# [8] = biological target: T4, CYP450 1A2 (Homo sapiens, UniProt P05177); assay: CYP enzyme single point inhibition test, human liver microsomes, 1A2; assay type: in vitro ADME; settings: single point method
# T4 construct: from tissue; host or cells: human liver microsomes
# T4 sequence (P05177 1-516): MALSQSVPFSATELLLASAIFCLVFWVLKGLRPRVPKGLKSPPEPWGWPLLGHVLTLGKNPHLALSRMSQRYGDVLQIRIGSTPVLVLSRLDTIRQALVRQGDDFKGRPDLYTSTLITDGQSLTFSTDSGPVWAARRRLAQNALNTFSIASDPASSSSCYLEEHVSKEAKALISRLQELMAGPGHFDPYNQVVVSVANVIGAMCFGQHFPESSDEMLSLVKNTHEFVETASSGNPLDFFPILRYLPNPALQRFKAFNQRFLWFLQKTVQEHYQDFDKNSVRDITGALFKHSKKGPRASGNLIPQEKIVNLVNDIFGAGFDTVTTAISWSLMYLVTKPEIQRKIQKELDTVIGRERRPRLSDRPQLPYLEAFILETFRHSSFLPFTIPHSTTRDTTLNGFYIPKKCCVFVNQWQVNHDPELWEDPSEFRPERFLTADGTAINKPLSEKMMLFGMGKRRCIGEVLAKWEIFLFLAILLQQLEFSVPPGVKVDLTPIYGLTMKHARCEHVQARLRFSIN
# Experimental: as §1, §2, §3, §4
# [9] = Plasma stability, dog plasma; assay type: in vitro ADME; settings: dog plasma, 37° C.
# Outline: as §5
# [10] = biological target: T5, CYP450 2D6 (Homo sapiens, UniProt P10635); assay: CYP enzyme single point inhibition test, human liver microsomes, 2D6; assay type: in vitro ADME; settings: single point method
# T5 construct: from tissue; host or cells: human liver microsomes
# T5 sequence (P10635 whole entry): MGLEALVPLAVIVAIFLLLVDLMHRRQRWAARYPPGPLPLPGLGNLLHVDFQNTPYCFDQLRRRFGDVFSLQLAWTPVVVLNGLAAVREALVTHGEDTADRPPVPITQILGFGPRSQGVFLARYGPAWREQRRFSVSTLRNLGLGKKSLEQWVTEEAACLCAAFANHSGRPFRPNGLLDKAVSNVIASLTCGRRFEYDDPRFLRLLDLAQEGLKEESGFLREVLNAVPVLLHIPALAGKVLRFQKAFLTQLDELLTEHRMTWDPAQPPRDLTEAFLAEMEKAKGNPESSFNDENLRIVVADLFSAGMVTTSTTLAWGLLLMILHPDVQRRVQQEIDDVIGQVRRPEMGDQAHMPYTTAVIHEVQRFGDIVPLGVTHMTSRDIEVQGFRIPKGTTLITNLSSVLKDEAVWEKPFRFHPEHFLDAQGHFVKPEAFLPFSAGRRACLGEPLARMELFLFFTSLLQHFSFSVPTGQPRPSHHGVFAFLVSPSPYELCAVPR
# Experimental: as §1, §2, §3, §4
# [11] = 3A4-M, read-out: IC50 (μM) 3A4-M
# [12] = 3A4-T, read-out: IC50 (μM) 3A4-T
# [13] = Balb/c mice, PO 10 mg/kg, plasma
Compound,IC50 [2] [µM],"IC50 [3, 11] [µM]","IC50 [3, 12] [µM]",Residual rate (%) 0 min [5] [%],Residual rate (%) 15 min [5] [%],Residual rate (%) 30 min [5] [%],Residual rate (%) 60 min [5] [%],Residual rate (%) 120 min [5] [%],IC50 [6] [µM],IC50 [8] [µM],Residual rate (%) 0 min [9] [%],Residual rate (%) 15 min [9] [%],Residual rate (%) 30 min [9] [%],Residual rate (%) 60 min [9] [%],Residual rate (%) 120 min [9] [%],IC50 [10] [µM],other results
"C=CC(=O)N1C[C@H](C)N(c2nc(=O)n(-c3c(SC)ccnc3C(C)C)c3nc(-c4c(N)ccc(Cl)c4F)c(Cl)cc23)C[C@H]1C (atropisomer, axis not shown) [Embodiment 13-1, P-4-((2S,5R)-4-Acryloyl-2,5-dimethylpiperazin-1-yl)-7-(6-amino-3-chloro-2-fluorophenyl)-6-chloro-1-(2-isopropyl-4-(methylthio)pyridin-3-yl)pyrido[2,3-d]pyrimidin-2(1H)-one]",58.8,4.7,9.1,100.00,95.57,96.73,93.97,91.93,28.8,66.7,100.00,97.71,96.32,94.86,92.49,21.2,"half-life ([1]; male, Balb/c, mouse, in vivo, po, 10 mg/kg): 60 min; Residual rate (%) 0 min ([4]; human, 0.5 μM): 100.00%; Residual rate (%) 15 min ([4]; human, 0.5 μM): 102.34%; Residual rate (%) 30 min ([4]; human, 0.5 μM): 100.28%; Residual rate (%) 60 min ([4]; human, 0.5 μM): 90.27%; Residual rate (%) 120 min ([4]; human, 0.5 μM): 87.22%; Residual rate (%) 0 min ([7]; mouse, 0.5 μM): 100.00%; Residual rate (%) 15 min ([7]; mouse, 0.5 μM): 100.58%; Residual rate (%) 30 min ([7]; mouse, 0.5 μM): 99.52%; Residual rate (%) 60 min ([7]; mouse, 0.5 μM): 99.64%; Residual rate (%) 120 min ([7]; mouse, 0.5 μM): 92.32%"
"P-4-((2S,5R)-4-acryloyl-2,5-dimethylpiperazin-1-yl)-6-fluoro-7-(2-fluoro-6-hydroxyphenyl)-1-(2-isopropyl-4-(methylthio)pyridin-3-yl)pyrido[2,3-d]pyrimidin-2(1H)-one [Embodiment 2-1]",84.6,19,> 100,100.00,99.04,101.03,97.16,84.63,> 100,> 100,100.00,97.87,96.23,92.42,85.48,> 100,"AUC0-∞ [1, 13]: 1373 ng·h/mL; Cmax [1, 13]: 1823 ng/mL; MRT [1, 13]: 42 min; T1/2 [1, 13]: 36 min; Tmax [1, 13]: 15 min; Residual rate (%) 0 min ([4]; human plasma, 37° C.): 100.00%; Residual rate (%) 15 min ([4]; human plasma, 37° C.): 97.39%; Residual rate (%) 30 min ([4]; human plasma, 37° C.): 98.79%; Residual rate (%) 60 min ([4]; human plasma, 37° C.): 94.50%; Residual rate (%) 120 min ([4]; human plasma, 37° C.): 87.91%; Residual rate (%) 0 min ([7]; mouse plasma, 37° C.): 100.00%; Residual rate (%) 15 min ([7]; mouse plasma, 37° C.): 102.67%; Residual rate (%) 30 min ([7]; mouse plasma, 37° C.): 98.51%; Residual rate (%) 60 min ([7]; mouse plasma, 37° C.): 95.49%; Residual rate (%) 120 min ([7]; mouse plasma, 37° C.): 84.58%"
